Results on 23 compounds are retold here after patent US9034866B2 (Genentech, Inc., priority 2012, dated 2015).

Assay [1] concerns REL-A (p65) nuclear translocation in HeLa cells. Put plainly: REL-A nuclear translocation assay (classical NF-kB signaling), high content imaging. The assay is classed as cell-based. Conditions: Homo sapiens, compounds 4.5 hours, then 10 ng/mL TNF-α for 30 minutes, read-out: REL-A HeLa Transloc Assay (IC50). An outline of the steps:
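HeLa cells in 10% FBS medium preincubated with compounds (0.2% DMSO final) for 4.5 hours, then stimulated with 10 ng/mL TNF-α for 30 minutes. Fixed cells stained with 400 ng/mL anti-REL-A antibody, Alexa488 secondary and DRAQ5; translocation quantified by imaging as nuclear to cytoplasmic signal ratio.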

The subject of assay [2] is p52 (NF-kB2) nuclear translocation in HeLa cells. As to the kind of experiment: p52 nuclear translocation assay (non-classical NF-kB signaling), high content imaging. The assay is classed as cell-based. As to conditions: 100 ng/mL anti-lymphotoxin beta receptor antibody for 5 hours, read-out: p52 HeLa Transloc Assay (IC50). The method, then: (2) A second set of cell assay are used to define the selectivity of NIK inhibitors toward inhibition of classical vs. non-classical NF-kB signaling and rely on quantification of the nuclear translocation of p52 (NF-kB2) and REL-A (p65) using high content cellular imaging. For the p52 (non-classical NF-kB signaling) nuclear translocation assay, HeLa cells are treated with different concentrations of compounds (0.2% DMSO final) in medium containing 10% fetal bovine serum and then stimulated with 100 ng/mL, of an anti-lymphotoxin beta receptor antibody (R&D Systems) for 5 hours. In the REL-A nuclear translocation assay, HeLa cells are incubated with compounds (0.2% DMSO final) for 4.5 hours in medium containing 10% fetal bovine serum before stimulating them with 10 ng/mL tumor necrosis factor (TNF)-α (R&D Systems) for 30 minutes. Cells are fixed with 4% paraformaldehyde, permeabilized by adding 0.1% Triton X-100 in phosphate buffered saline, and then are incubated with either 2 ug/mL anti-p52 antibody (Millipore) or 400 ng/mL anti-REL-A (p65) antibody (Santa Cruz Biotechnology). Finally, the cells are incubated with an Alexa488-labeled secondary antibody (Invitrogen) and DRAQ5 DNA stain (Biostatus). Imaging is carried out using an Opera reader (Perkin Elmer) and data are analyzed with the aid of Acapella software (Perkin Elmer). The p52 or REL-A translocation into the nucleus is quantified by the ratio of the nuclear to cytoplasmic signal intensity. […] The compounds in listed in Table 1 have the corresponding inhibitory value (IC50 in micromolar) for NIK p52 Translocation Assay as set forth in Table 2.

Structures are written as SMILES. Where two headings read alike, the source gives them in different places.

On to `CN1CC[C@@](O)(C#Cc2ccc3c(c2)-c2nc(C(N)=O)c(C(=O)NC4CCOCC4)n2CCO3)C1=O` [Example 422, 9-fluoro-10-(3-hydroxy-3-methyl-but-1-ynyl)-3-(1-hydroxy-1-methyl-ethyl)-5,6,7,12-tetrahydro-5,7-methanobenzo[c]imidazo[1,2-a]azepine-2-carboxamide], for which the IC50 – broadly, the concentration that gives 50% inhibition – in assay [1] (HeLa) is over 20000 nM; in assay [2] (Homo sapiens, HeLa, 5 h), 406 nM.

Consider `Cn1c(C(N)=O)nc2c1C1CC(C1)c1ccc(C#C[C@@](C)(O)c3ncccn3)cc1-2` [Example 427, 9-fluoro-10-(3-hydroxy-3-methyl-but-1-ynyl)-N3-methyl-5,6,7,12-tetrahydro-5,7-methanobenzo[c]imidazo[1,2-a]azepine-2,3-dicarboxamide], for which the IC50 in assay [1] (HeLa) is over 20000 nM; in assay [2] (Homo sapiens, HeLa, 5 h), 453 nM.

As to `NC(=O)c1nc2n(c1C1CC1)C1CC(C1)c1cc(F)c(C#C[C@]3(O)CCNC3=O)cc1-2` [Example 338, 3-cyclopropyl-9-fluoro-10-[2-[(3R)-3-hy-droxy-2-oxo-pyrrolidin-3-yl]ethynyl]-5,6,7,12-tetrahydro-5,7-methano-benzo[c]imidazo[1,2-a]azepine-2-carboxamide], the IC50 was over 20000 nM in assay [1] (HeLa) and 3000 nM in assay [2] (Homo sapiens, HeLa, 5 h).

In the case of `Cc1cc([C@](C)(O)C#Cc2cc3c(cc2F)OCCc2sc(C(N)=O)nc2-3)no1` [Example 39], the IC50 in assay [1] (HeLa) was determined as 20000 nM; in assay [2] (Homo sapiens, HeLa, 5 h), 38 nM.

For `CC(C)(O)Cn1cc(-c2c(C(N)=O)nc3n2C2CC(C2)c2ccc(C#CC4(O)CCCC4)cc2-3)cn1` [Example 289], the IC50 was over 20000 nM in assay [1] (HeLa) and 2700 nM in assay [2] (Homo sapiens, HeLa, 5 h).

With `Cc1cc([C@](C)(O)C#Cc2ccc3c(c2)-n2nc(C(N)=O)cc2[C@H](F)CO3)no1`, the half-inhibitory concentration (IC50) in assay [1] (HeLa) is over 20000 nM; in assay [2] (Homo sapiens, HeLa, 5 h), 379 nM.

For `CNC(=O)c1c(C(N)=O)nc2n1CCOc1ccc(C#C[C@]3(O)CCN(C)C3=O)cc1-2` (racemic) [Example 419, (±)-9-fluoro-10-(3-hydroxy-3-methyl-but-1-ynyl)-3-[(3-hydroxypyrrolidin-1-yl)methyl]-5,6,7,12-tetrahydro-5,7-methanobenzo[c]imidazo[1,2-a]azepine-2-carboxamide], the IC50 is over 20000 nM in assay [1] (HeLa) and 317 nM in assay [2] (Homo sapiens, HeLa, 5 h).

With `COC[C@](C)(O)C#Cc1cc2c(cc1F)C1CC(C1)n1cc(C(N)=O)nc1-2`, the half-inhibitory concentration (IC50) in assay [1] (HeLa) is over 20000 nM; in assay [2] (Homo sapiens, HeLa, 5 h), 2100 nM.

As to `Cc1nc([C@](C)(O)C#Cc2ccc3c(c2)-c2nc(C(N)=O)sc2C2CC3C2)no1` [Example 450, (R)-9-(3-hydroxy-3-(5-methyl-1,2,4-oxa-diazol-3-yl)but-1-yn-1-yl)-5,6-dihydro-4H-4,6-methanobenzo[6,7]cyclo-hepta[1,2-d]thiazole-2-carboxamide], the 50% inhibitory concentration (IC50) in assay [1] (HeLa) was over 20000 nM; in assay [2] (Homo sapiens, HeLa, 5 h), 459 nM.

On to `CNC(=O)c1c(C(N)=O)nc2n1C1CC(C1)c1ccc(C#CC3(O)CCCC3)cc1-2` (racemic), for which the IC50 in assay [1] (HeLa) is over 20000 nM; in assay [2] (Homo sapiens, HeLa, 5 h), 709 nM.

`CN1CC[C@@](O)(C#Cc2cc3c(cc2F)C2CC(C2)n2c-3nc(C(N)=O)c2C2CC2)C1=O` [Example 333, 3-cyclopropyl-9-fluoro-10-[2-[(3R)-3-hy-droxy-1-methyl-2-oxo-pyrrolidin-3-yl]ethynyl]-5,6,7,12-tetrahydro-5,7-meth-anobenzo[c]imidazo[1,2-a]azepine-2-carboxamide]: the IC50 in assay [1] (HeLa) was over 20000 nM; in assay [2] (Homo sapiens, HeLa, 5 h), 2200 nM.

Turning to `CC(C)(O)C#Cc1cc2c(cc1F)C1CC(C1)n1c-2nc(C(N)=O)c1C1CC1` [Example 195, 3-cyclopropyl-9-fluoro-10-(3-hydroxy-3-methyl-but-1-ynyl)-5,6,7,12-tetrahydro-5,7-methanobenzo[c]imidazo[1,2-a]azepine-2-carboxamide], the IC50 in assay [1] (HeLa) was over 20000 nM; in assay [2] (Homo sapiens, HeLa, 5 h) it was 2400 nM.

As to `Cc1nc([C@](C)(O)C#Cc2ccc3c(c2)-c2nc(C(N)=O)c(Cc4ccnn4C)n2C2CC3C2)no1` [Example 260, 10-[(3R)-3-hydroxy-3-(5-methyl-1,2,4-oxadiazol-3-yl)but-1-ynyl]-3-[(2-methyl-pyrazol-3-yl)methyl]-5,6,7,12-tetrahydro-5,7-methanobenzo[c]imidazo[1,2-a]aze-pine-2-carboxamide], the IC50 in assay [1] (HeLa) was over 20000 nM; in assay [2] (Homo sapiens, HeLa, 5 h), 4800 nM.

For `CC(C)(O)C#Cc1cc2c(cc1F)C1CC(C1)n1c-2nc(C(N)=O)c1CNC(=O)C1CC1` (racemic), the IC50 in assay [1] (HeLa) is over 20000 nM; in assay [2] (Homo sapiens, HeLa, 5 h) it was 1400 nM.

As to `NC(=O)c1cn2c(n1)-c1cc(C#CC3(O)CCC3)ccc1C1CC2C1` [Example 369, 10-[2-(1-hydroxycyclobutyl)ethynyl]-5,6,7,12-tetrahydro-5,7-methanobenzo[c]imi-dazo[1,2-a]azepine-2-carboxamide], the figures for the IC50 in assay [1] and in assay [2] (Homo sapiens) were over 20000 nM and 3700 nM, respectively.

On to `COC[C@](C)(O)C#Cc1ccc2c(c1)-c1nc(C(N)=O)sc1[C@H](F)CO2`, for which the IC50 in assay [1] (HeLa) was found to be 15300 nM; in assay [2] (Homo sapiens, HeLa, 5 h) it was 682 nM.

As to `Cc1cc([C@](C)(O)C#Cc2cc3c(cc2F)C2CC(C2)n2c-3nc(C(N)=O)c2CNC(=O)C2CC2)no1` [Example 363], the figures for the IC50 in assay [1] and in assay [2] (Homo sapiens) were over 20000 nM and 660 nM, respectively.

As to `Cc1c(C(N)=O)nc2n1C1CC(C1)c1cc(F)c(C#C[C@]3(O)CCN(C)C3=O)cc1-2` [Example 331, 9-fluoro-10-[2-[(3R)-3-hydroxy-1-meth-yl-2-oxo-pyrrolidin-3-yl]ethynyl]-3-meth-yl-5,6,7,12-tetrahydro-5,7-methano-benzo[c]imidazo[1,2-a]azepine-2-carboxamide], the IC50 in assay [1] (HeLa) was over 20000 nM; in assay [2] (Homo sapiens, HeLa, 5 h), 1000 nM.

For the compound `Cc1cc([C@](C)(O)C#Cc2ccc3c(c2)-c2nc(C(N)=O)c(Cn4c(C)nc5ccccc54)n2CCO3)no1` [Example 415, 9-fluoro-10-(3-hydroxy-3-methyl-but-1-ynyl)-3-[(2-methoxyethylamino)methyl]-5,6,7,12-tetrahydro-5,7-methanobenzo[c]imidazo[1,2-a]azepine-2-carboxamide], the IC50 was over 20000 nM in assay [1] (HeLa) and 979 nM in assay [2] (Homo sapiens, HeLa, 5 h).

As for `Cc1nc([C@](C)(O)C#Cc2cc3c(cc2F)OC[C@H](N(C)C)c2sc(C(N)=O)nc2-3)no1` [Example 258, (S)-4-(dimethylamino)-8-fluoro-9-[3-(R)-hydroxy-3-(5-methyl-1,2,4-oxadiazol-3-yl)but-1-ynyl]-4,5-dihydro-[1]benzoxe-pino[5,4-d]thiazole-2-carboxamide], the IC50 in assay [1] (HeLa) was over 20000 nM; in assay [2] it was 2000 nM; in assay [2] (Homo sapiens, HeLa, 5 h), 2900 nM.

As for `CC(C)(O)C#Cc1cc2c(cc1F)C1CC(C1)c1c-2nc(C(N)=O)n1C(F)F` [Example 411, 9-fluoro-10-(3-hydroxy-3-methyl-but-1-ynyl)-3-(pyrrolidin-1-ylmethyl)-5,6,7,12-tetrahydro-5,7-methanobenzo[c]imidazo[1,2-a]azepine-2-carboxamide], the IC50 is 20000 nM in assay [1] (HeLa) and 73.2 nM in assay [2] (Homo sapiens, HeLa, 5 h).

For the compound `CN1CCC(O)(C#Cc2ccc3c(c2)-c2nc(C(N)=O)sc2CCO3)C1=O` (racemic), the IC50 in assay [1] (HeLa) was over 20000 nM; in assay [2] (Homo sapiens, HeLa, 5 h) it was 300 nM.

Consider `Cn1nccc1C(O)c1c(C(N)=O)nc2n1C1CC(C1)c1cc(F)c(C#CC3(O)CCCC3)cc1-2` (centres unmarked) [Example 304, 9-fluoro-10-[2-(1-hydroxycyclopen-tyl)ethynyl]-3-[hydroxy-(2-methylpyrazol-3-yl)methyl]-5,6,7,12-tetrahydro-5,7-meth-anobenzo[c]imidazo[1,2-a]azepine-2-car-boxamide], for which the IC50 is over 20000 nM in assay [1] (HeLa) and 1100 nM in assay [2] (Homo sapiens, HeLa, 5 h).
